Where “and” joins values, the source holds several entries; their conditions need not be identical. Equal values may be shown once. Read-outs that look alike come from different tables or passages of the source.
How the values were obtained:
[1] = test system: SARS-CoV-2 NanoLuc reporter virus; experiment: microbe, parasite or virus in culture; type: cell-based
[2] = CF patients, cited from earlier work
[3] = 0.25 mg daily for one week, cystic fibrosis patients; cited from earlier work
[4] = test system: native SARS-CoV-2; conditions: Vero cells; cited from earlier work
[5] = cited from earlier work
[6] = test system: SARS-CoV-2 Spike pseudotyped VSV(S); experiment: microbe, parasite or virus in culture; type: cell-based; conditions: Severe acute respiratory syndrome coronavirus 2, A549, read-out: Hill plot-based EC-50, inhibition of virus penetration
[7] = 0.50–0.60 mg injected, 12 normal subjects; cited from earlier work
[8] = 0.25 mg ouabain daily for 9 days
[9] = 0.25 mg ouabain, normal human volunteers

For `C[C@H]1O[C@@H](O[C@H]2[C@@H](O)C[C@H](O[C@H]3[C@@H](O)C[C@H](O[C@H]4CC[C@@]5(C)[C@H](CC[C@@H]6[C@@H]5CC[C@]5(C)[C@@H](C7=CC(=O)OC7)CC[C@]65O)C4)O[C@@H]3C)O[C@@H]2C)C[C@H](O)[C@@H]1O` [Digitoxin, digitoxin], the inhibition of infectivity [1] is given as 100%, the peak serum concentration ([2]; 0.1 mg/day by mouth, by day 28) is given as 10 ng/ml and 13 nM and the adverse events ([2]; 0.05 or 0.1 mg/day for 28 days) is given as “no adverse events were associated with the study drug”.
In the case of `C[C@H]1O[C@@H](O[C@H]2[C@@H](O)C[C@H](O[C@H]3[C@@H](O)C[C@H](O[C@H]4CC[C@@]5(C)[C@H](CC[C@@H]6[C@@H]5C[C@@H](O)[C@]5(C)[C@@H](C7=CC(=O)OC7)CC[C@]65O)C4)O[C@@H]3C)O[C@@H]2C)C[C@H](O)[C@@H]1O` [Digoxin, digoxin], the inhibition of infectivity [1] is given as 100%, the adverse events [3] is given as “no adverse events associated with the study drug” and the EC50 [4] is given as 43 nM.
`C[C@]12CC[C@H](O)C[C@H]1CC[C@@H]1[C@@H]2C[C@@H](O)[C@]2(C)[C@@H](C3=CC(=O)OC3)CC[C@]12O` [Digoxigenin, digoxigenin] showed an inhibition of infectivity [1] of 100%.
Compound `C[C@]12CC[C@H](O)C[C@H]1CC[C@@H]1[C@@H]2CC[C@]2(C)[C@@H](C3=CC(=O)OC3)CC[C@]12O` [Digitoxigenin, digitoxigenin] has an inhibition of infectivity [1] of 100%.
In the case of `C[C@@H]1O[C@@H](O[C@H]2C[C@@H](O)[C@]3(CO)[C@H]4[C@H](O)C[C@]5(C)[C@@H](C6=CC(=O)OC6)CC[C@]5(O)[C@@H]4CC[C@]3(O)C2)[C@H](O)[C@H](O)[C@H]1O` [Ouabain, ouabain], the inhibition of infectivity [1] is listed as 100%, the EC50 ([1]; Severe acute respiratory syndrome coronavirus 2, read-out: EC50, inhibition of infectivity) is listed as 36 nM and the adverse events [5, 8] is listed as “No adverse events were reported”. For the same compound, the time to plateau [5, 8] was 4 to 5 days, the half-life [5, 9] was 19 to 24 h and the peak plasma concentration [5, 9] was 12 ng/ml and 20 nM. The EC50 [6] was 16 ± 1 nM, the EC50 [4] was 24 nM and the adverse effects [7] was “No adverse effects were reported”.
